Data reported in PubChem BioAssay AID1259407 (Chemical Carcinogenesis Research Information System (CCRIS), 2018).
The source made the active and inactive calls. No rule for the calls is given here.

Test system: CCRIS mutagenicity, Ames/micronucleus/aberration tests
Test: CCRIS mutagenicity studies
[1] = Test System: AMES SALMONELLA TYPHIMURIUM, Strain/Indicator: TA98, Metabolic Activation: NONE, Method: STANDARD PLATE
[2] = Test System: AMES SALMONELLA TYPHIMURIUM, Strain/Indicator: TA100, Metabolic Activation: NONE, Method: STANDARD PLATE
[3] = Test System: AMES SALMONELLA TYPHIMURIUM, Strain/Indicator: TA1535, Metabolic Activation: NONE, Method: STANDARD PLATE
[4] = Test System: AMES SALMONELLA TYPHIMURIUM, Strain/Indicator: TA1537, Metabolic Activation: NONE, Method: STANDARD PLATE
[5] = Test System: E. COLI, Strain/Indicator: WP2 UVRA, Metabolic Activation: NONE, Method: STANDARD PLATE

`O=C(O)C(Cl)Cl` was tested, and the mutagenic call (End Point: IN VITRO CHROMOSOMAL ABERRATIONS, Test System: CHL CELLS, Metabolic Activation: RAT, LIVER, S-9, SODIUM PHENOBARBITAL AND 5,6-BENZOFLAVONE) was “active; positive (structural changes)”, the mutagenic call (End Point: In vivo micronucleus, Test System: Normochromatic erythrocytes, Species: Mouse, Strain/Sex: B6C3F1/Male, Route: Oral) was “inactive; negative” and the mutagenic call (End Point: In vivo micronucleus, Test System: Peripheral blood normochromatic erythrocytes, Species: Mouse, Strain/Sex: B6C3F1/Female, Route: Oral) was “inactive; negative; increase in frequency of micronucleated erythrocytes was judged to be”. For the same compound, the mutagenic call (End Point: In vivo micronucleus, Test System: Peripheral blood normochromatic erythrocytes, Species: Mouse, Strain/Sex: B6.129-TRP53TM1 BRD/Female, Route: Oral) was “inactive; negative”, the mutagenic call (End Point: In vivo micronucleus, Test System: Peripheral blood normochromatic erythrocytes, Species: Mouse, Strain/Sex: B6.129-TRP53TM1 BRD/Male, Route: Oral) was “inactive; negative” and the mutagenic call (End Point: In vivo micronucleus, Test System: Peripheral blood normochromatic erythrocytes, Species: Mouse, Strain/Sex: FVB/N-TgN (v-Ha-ras)Led (Tg.AC) hemizygous/Female, Route: Dermal) was “inactive; negative”. The mutagenic call (End Point: In vivo micronucleus, Test System: Peripheral blood normochromatic erythrocytes, Species: Mouse, Strain/Sex: FVB/N-TgN (v-Ha-ras)Led (Tg.AC) hemizygous/Male, Route: Dermal) was “inactive; negative”, the mutagenic call (End Point: In vivo micronucleus, Test System: Peripheral blood normochromatic erythrocytes, Species: Mouse, Strain/Sex: Tg.AC hemizygous/Female, Route: Oral) was “inactive; negative” and the mutagenic call (End Point: In vivo micronucleus, Test System: Peripheral blood normochromatic erythrocytes, Species: Mouse, Strain/Sex: Tg.AC hemizygous/Male, Route: Oral) was “inactive; negative”. The mutagenic call (Test System: AMES SALMONELLA TYPHIMURIUM, Strain/Indicator: RSJ100, Metabolic Activation: NONE, Method: PREINCUBATION) was “active; positive”, the mutagenic call (Test System: AMES SALMONELLA TYPHIMURIUM, Strain/Indicator: RSJ100, Metabolic Activation: RAT LIVER S-9, Method: PREINCUBATION) was “inactive; negative” and the mutagenic call [1] was “inactive; negative”. The mutagenic call (Test System: AMES SALMONELLA TYPHIMURIUM, Strain/Indicator: TA98, Metabolic Activation: RAT LIVER S-9, Method: PREINCUBATION) was “inactive; negative”, the mutagenic call (Test System: AMES SALMONELLA TYPHIMURIUM, Strain/Indicator: TA98, Metabolic Activation: RAT, LIVER, S-9, AROCLOR 1254, Method: STANDARD PLATE) was “inactive; negative” and the mutagenic call (Test System: AMES SALMONELLA TYPHIMURIUM, Strain/Indicator: TA98, Metabolic Activation: RAT, LIVER, S-9, PHENOBARBITAL AND 5,6-BENZOFLAVONE, Method: PREINCUBATION) was “inactive; negative”. For the same compound, the mutagenic call (Test System: AMES SALMONELLA TYPHIMURIUM, Strain/Indicator: TA100, Metabolic Activation: NONE, Method: BAG VAPORIZATION) was “active; positive”, the mutagenic call (Test System: AMES SALMONELLA TYPHIMURIUM, Strain/Indicator: TA100, Metabolic Activation: NONE, Method: FLUCTUATION TEST) was “active; positive” and the mutagenic call (Test System: AMES SALMONELLA TYPHIMURIUM, Strain/Indicator: TA100, Metabolic Activation: NONE, Method: PREINCUBATION) was “active; positive”. For the same compound, the mutagenic call [2] was “inactive; negative”, the mutagenic call (Test System: AMES SALMONELLA TYPHIMURIUM, Strain/Indicator: TA100, Metabolic Activation: RAT LIVER S-9, Method: PREINCUBATION) was “active; positive” and the mutagenic call (Test System: AMES SALMONELLA TYPHIMURIUM, Strain/Indicator: TA100, Metabolic Activation: RAT, LIVER, S-9, AROCLOR 1254, Method: BAG VAPORIZATION) was “active; positive”. The mutagenic call (Test System: AMES SALMONELLA TYPHIMURIUM, Strain/Indicator: TA100, Metabolic Activation: RAT, LIVER, S-9, AROCLOR 1254, Method: FLUCTUATION TEST) was “active; positive”, the mutagenic call (Test System: AMES SALMONELLA TYPHIMURIUM, Strain/Indicator: TA100, Metabolic Activation: RAT, LIVER, S-9, AROCLOR 1254, Method: STANDARD PLATE) was “inactive; negative” and the mutagenic call (Test System: AMES SALMONELLA TYPHIMURIUM, Strain/Indicator: TA100, Metabolic Activation: RAT, LIVER, S-9, PHENOBARBITAL AND 5,6-BENZOFLAVONE, Method: PREINCUBATION) was “inactive; negative”. The mutagenic call (Test System: AMES SALMONELLA TYPHIMURIUM, Strain/Indicator: TA102, Metabolic Activation: NONE, Method: STANDARD PLATE) was “inactive; negative”, the mutagenic call (Test System: AMES SALMONELLA TYPHIMURIUM, Strain/Indicator: TA102, Metabolic Activation: RAT LIVER S-9, AROCLOR 1254, Method: STANDARD PLATE) was “inactive; negative” and the mutagenic call (Test System: AMES SALMONELLA TYPHIMURIUM, Strain/Indicator: TA102, Metabolic Activation: RAT, LIVER, S-9, PHENOBARBITAL AND 5,6-BENZOFLAVONE, Method: STANDARD PLATE) was “inactive; negative”. For the same compound, the mutagenic call [3] was “inactive; negative”, the mutagenic call (Test System: AMES SALMONELLA TYPHIMURIUM, Strain/Indicator: TA1535, Metabolic Activation: RAT, LIVER, S-9, AROCLOR 1254, Method: STANDARD PLATE) was “inactive; negative” and the mutagenic call [4] was “inactive; negative”. The mutagenic call (Test System: AMES SALMONELLA TYPHIMURIUM, Strain/Indicator: TA1537, Metabolic Activation: RAT, LIVER, S-9, AROCLOR 1254, Method: STANDARD PLATE) was “inactive; negative”, the mutagenic call (Test System: AMES SALMONELLA TYPHIMURIUM, Strain/Indicator: TA2638, Metabolic Activation: RAT, LIVER, S-9, PHENOBARBITAL AND 5,6-BENZOFLAVONE, Method: STANDARD PLATE) was “inactive; negative” and the mutagenic call (Test System: Ames Salmonella typhimurium, Strain/Indicator: TA98, Metabolic Activation: Hamster, liver, S-9, Aroclor 1254 (30%), Method: Preincubation) was “inactive; negative”. The mutagenic call (Test System: Ames Salmonella typhimurium, Strain/Indicator: TA98, Metabolic Activation: Hamster, liver, S-9, Aroclor 1254, 30%, Method: Preincubation) was “inactive; negative”, the mutagenic call (Test System: Ames Salmonella typhimurium, Strain/Indicator: TA98, Metabolic Activation: Rat, liver, S-9, Aroclor 1254, 30%, Method: Preincubation) was “inactive; negative” and the mutagenic call (Test System: Ames Salmonella typhimurium, Strain/Indicator: TA100, Metabolic Activation: Hamster, liver, S-9, Aroclor 125, 30%, Method: Preincubation) was “inactive; negative”. The mutagenic call (Test System: Ames Salmonella typhimurium, Strain/Indicator: TA100, Metabolic Activation: Hamster, liver, S-9, Aroclor 1254, 30%, Method: Preincubation) was “inactive; negative”, the mutagenic call (Test System: Ames Salmonella typhimurium, Strain/Indicator: TA100, Metabolic Activation: None, Method: Preincubation) was “active; positive” and the mutagenic call (Test System: Ames Salmonella typhimurium, Strain/Indicator: TA100, Metabolic Activation: Rat, liver, S-9, Aroclor 1254, 30%, Method: Preincubation) was “inactive; negative”. The mutagenic call (Test System: Ames Salmonella typhimurium, Strain/Indicator: TA1535, Metabolic Activation: None, Method: Preincubation) was “active; positive, three trials performed; ntp described results as positive, weakly posi”, the mutagenic call (Test System: E. COLI, Strain/Indicator: WP2 (PKM101), Metabolic Activation: RAT, LIVER, S-9, PHENOBARBITAL AND 5,6-BENZOFLAVONE, Method: STANDARD PLATE) was “inactive; negative” and the mutagenic call (Test System: E. COLI, Strain/Indicator: WP2 UVRA (PKM101), Metabolic Activation: RAT, LIVER, S-9, PHENOBARBITAL AND 5,6-BENZOFLAVONE, Method: STANDARD PLATE) was “inactive; negative”. The mutagenic call [5] was “inactive; negative”, the mutagenic call (Test System: E. COLI, Strain/Indicator: WP2 UVRA, Metabolic Activation: RAT, LIVER, S-9, AROCLOR 1254, Method: STANDARD PLATE) was “inactive; negative” and the mutagenic call (Test System: MOUSE LYMPHOMA, Strain/Indicator: L5178Y (TK+/TK- -3.7.2C), Metabolic Activation: NONE) was “active; positive”. For the same compound, the mutagenic call (Test System: MOUSE LYMPHOMA, Strain/Indicator: L5178Y (TK+/TK-), Metabolic Activation: NONE, Method: SUSPENSION/PLATE) was “inactive; negative” and the mutagenic call (Test System: MOUSE LYMPHOMA, Strain/Indicator: L5187Y (TK+/TK-), Metabolic Activation: RAT, LIVER, S-9, AROCLOR 1254, Method: SUSPENSION/PLATE) was “inactive; negative”.

`NC[C@H]1CCCN1.O=C([O-])C1(C(=O)[O-])CCC1.[Pt+2]` was tested, and the mutagenic call [1] was “inactive; negative”, the mutagenic call (Test System: AMES SALMONELLA TYPHIMURIUM, Strain/Indicator: TA98, Metabolic Activation: RAT, LIVER, S-9, PHENOBARBITAL AND 5,6-BENZOFLAVONE, Method: STANDARD PLATE) was “inactive; negative” and the mutagenic call [2] was “inactive; negative”. For the same compound, the mutagenic call (Test System: AMES SALMONELLA TYPHIMURIUM, Strain/Indicator: TA100, Metabolic Activation: RAT, LIVER, S-9, PHENOBARBITAL AND 5,6-BENZOFLAVONE, Method: STANDARD PLATE) was “inactive; negative”, the mutagenic call [3] was “inactive; negative” and the mutagenic call (Test System: AMES SALMONELLA TYPHIMURIUM, Strain/Indicator: TA1535, Metabolic Activation: RAT, LIVER, S-9, PHENOBARBITAL AND 5,6-BENZOFLAVONE, Method: STANDARD PLATE) was “inactive; negative”. For the same compound, the mutagenic call [4] was “inactive; negative”, the mutagenic call (Test System: AMES SALMONELLA TYPHIMURIUM, Strain/Indicator: TA1537, Metabolic Activation: RAT, LIVER, S-9, PHENOBARBITAL AND 5,6-BENZOFLAVONE, Method: STANDARD PLATE) was “inactive; negative” and the mutagenic call [5] was “inactive; negative”. The mutagenic call (Test System: E. COLI, Strain/Indicator: WP2 UVRA, Metabolic Activation: RAT, LIVER, S-9, PHENOBARBITAL AND 5,6-BENZOFLAVONE, Method: STANDARD PLATE) was “inactive; negative”.
